Test results reported in patent US5523303A, “Trisubstituted cycloalkane derivatives and process for the preparation thereof” (Egis Gyogyszergyar Rt., priority 1993, dated 1996).
Like-named read-outs stand apart in the source and are kept apart here.

Tests used:
[1] = system: gastric-acid-secretion; test: Gastric-acid-secretion inhibition on rats (method of Shay et al.); format: in vivo; settings: Rattus norvegicus, po, read-out: Acid-secretion inhibition, ED50
Procedure: 2. […] The liberated gastric acid content was determined by titration 4 hours after the ligature of the duodenum.

[2] = target: T1, H^+ K^+ -ATP-ase (Sus scrofa, UniProt P19156); test: H+/K+-ATP-ase inhibition on partially purified pig's microsome specimen (method of Rabon and Sachs); format: biochemical
T1 construct: on partially purified pig's microsome specimen; from tissue; host or cells: pig stomach, partially purified microsomes
Procedure: 1. H^+ /K^+ -ATP-ase inhibition on pig'stomach. The test was carried out according to the method of Rabon and Sachs [E. C. Rabon, W. B. I. and G. Sachs: Preparation of gastric H^+ /K^+ -ATP-ase. Methods in Enzymology, 157, 649-651 (1988)]. The activity of the prepared enzyme was measured both in the presence and in the absence of K^+ ions. The difference in the liberation of phosphorus representing the activity of the enzyme was measured.

[3] = Acute toxicity on mice (method of Lichtfield and Wilcoxon), LD50; settings: mouse, in vivo, ip, 14 days observation
[4] = as above; settings: mouse, in vivo, po, 14 days observation
Procedure: The test was carried out according to the method of Lichtfield and Wilcoxon [Lichtfield, J. T. and Wilcoxon, F. W.: J. Pharmacol. Exp. Ther., 96, 99 (1949)] by using white mice belonging to the CFLP strain and weighing 10 to 22 g, 10 animals per dose. The test compounds were administered orally in a volume of 20 cm3 /kg.

[5] = system: erosion of the stomach wall; test: Cytoprotective effect: inhibition of ethanol-induced erosion of the stomach wall on rats (method of Robert); format: in vivo; settings: for ED50: Rattus norvegicus, po; for Ratio of acid-secretion inhibition and erosion inhibition: ratio of the ED50 values
Procedure: 3. The cytoprotective effect was determined on rats according to the method of Robert [Robert, A.: Cytoprotection by prostaglandins. […] Rats weighing 200 to 250 g were used as test animals. 1 cm^3 of abs. ethanol was introduced to the stomach to produce an erosion of the stomach wall. The length and frequency of the lesions (erosion index and frequency) were measured and the percentage inhibition of lesion formation compared with vehicle-treated animals was calculated.

[6] = system: beta-adrenergic; settings: prior art; cited from earlier work
[7] = system: lipid level; settings: prior art; cited from earlier work
[8] = prior art; cited from earlier work
[9] = rats, p.o., 4 hours after ligature

T1 sequence (P19156 2-1034 limits assumed): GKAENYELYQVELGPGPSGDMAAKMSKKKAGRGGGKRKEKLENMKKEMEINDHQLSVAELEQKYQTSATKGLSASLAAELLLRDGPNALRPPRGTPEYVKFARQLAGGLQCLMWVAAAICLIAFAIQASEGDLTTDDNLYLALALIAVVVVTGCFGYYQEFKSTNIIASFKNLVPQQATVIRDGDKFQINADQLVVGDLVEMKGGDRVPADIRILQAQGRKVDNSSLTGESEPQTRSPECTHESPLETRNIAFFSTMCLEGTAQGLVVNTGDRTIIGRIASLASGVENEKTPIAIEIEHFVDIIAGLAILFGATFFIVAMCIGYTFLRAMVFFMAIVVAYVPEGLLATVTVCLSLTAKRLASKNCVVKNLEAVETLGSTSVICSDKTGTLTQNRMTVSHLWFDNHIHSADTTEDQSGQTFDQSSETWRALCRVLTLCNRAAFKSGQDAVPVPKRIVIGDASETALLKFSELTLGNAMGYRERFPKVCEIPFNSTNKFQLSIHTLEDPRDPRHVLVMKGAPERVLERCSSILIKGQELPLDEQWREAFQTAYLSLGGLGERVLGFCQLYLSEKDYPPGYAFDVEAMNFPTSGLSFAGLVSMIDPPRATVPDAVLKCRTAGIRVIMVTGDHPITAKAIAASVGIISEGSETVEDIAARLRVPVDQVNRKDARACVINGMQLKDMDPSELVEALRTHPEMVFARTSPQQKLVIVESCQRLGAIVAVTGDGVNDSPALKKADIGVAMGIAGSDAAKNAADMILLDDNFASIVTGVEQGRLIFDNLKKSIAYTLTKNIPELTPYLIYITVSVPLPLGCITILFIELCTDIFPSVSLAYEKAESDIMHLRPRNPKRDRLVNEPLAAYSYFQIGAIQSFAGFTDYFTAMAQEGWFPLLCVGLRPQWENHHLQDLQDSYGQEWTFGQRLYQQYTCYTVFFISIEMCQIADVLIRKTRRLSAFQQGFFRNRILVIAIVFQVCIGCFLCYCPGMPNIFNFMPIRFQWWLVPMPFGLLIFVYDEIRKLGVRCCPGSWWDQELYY
T1 sequence (P18434 whole entry partner): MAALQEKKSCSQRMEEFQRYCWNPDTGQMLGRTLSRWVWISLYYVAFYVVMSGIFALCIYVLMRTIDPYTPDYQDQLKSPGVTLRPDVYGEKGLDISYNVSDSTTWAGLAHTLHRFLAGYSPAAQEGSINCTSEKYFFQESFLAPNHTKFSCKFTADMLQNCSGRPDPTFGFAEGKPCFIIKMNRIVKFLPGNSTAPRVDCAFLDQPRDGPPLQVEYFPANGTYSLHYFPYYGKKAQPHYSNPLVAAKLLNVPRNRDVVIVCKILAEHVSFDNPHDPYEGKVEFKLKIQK

CC(CO/N=C1/C(=C/c2ccc(F)cc2)CCCC1C)CN(C)C (racemic) [Example 9, (R,S)-6-(E)-(4-Fluorophenylmethylene)-2-methyl-1-(E)-[3-(dimethylamino)-2-methylpropoxyimino]-cyclohexane]
ED50 [1, 9]: 30 to 120 mg/kg
IC50 [2]: > 30 µM
LD50 at 336 h [3]: ~300 mg/kg
LD50 at 336 h [4]: 600 mg/kg
ED50 ([5]; abs. ethanol): 1.2 mg/kg
Ratio of acid-secretion inhibition and erosion inhibition ([5]; p.o.): 25-100

CCCCCC1CCCC(=C\c2ccc(F)cc2)/C1=N/OCCN1CCN(Cc2ccccc2)CC1 (racemic) [Example 31, (R,S)-6-(E)-(4-Fluorophenylmethylene)-2-pentyl-1-(E)-[2-(4-phenylmethyl-1-piperazinyl)-ethoxyimino]-cyclohexane]
ED50 [1, 9]: 200 mg/kg
IC50 [2]: > 30 µM
LD50 at 336 h [3]: > 300 mg/kg
LD50 at 336 h [4]: > 1000 mg/kg
ED50 ([5]; abs. ethanol): 3.9 mg/kg
Ratio of acid-secretion inhibition and erosion inhibition ([5]; p.o.): 50

CCCCCCC1CCCC(=C\c2ccccc2OC)/C1=N/OCCN(CC)CC (racemic) [Example 34, (R,S)-6-(E)-(2-Methoxyphenylmethylene)-2-hexyl-1-(E)-[2-(diethylamino)-ethoxyimino]-cyclohexane]
ED50 [1, 9]: 103 mg/kg
IC50 [2]: 5 µM
LD50 at 336 h [3]: 88 mg/kg
LD50 at 336 h [4]: ~1000 mg/kg
ED50 ([5]; abs. ethanol): 1.4 mg/kg
Ratio of acid-secretion inhibition and erosion inhibition ([5]; p.o.): 73.4

CCCCCCCC1CCCC(=C\c2ccc(F)cc2)/C1=N/OCCN(C)C (racemic) [Example 35, (R,S)-6-(E)-(4-Fluorophenylmethylene)-2-heptyl-1-(E)-[2-(dimethylamino)-ethoxyimino]-cyclohexane]
ED50 [1, 9]: < 200 mg/kg
LD50 at 336 h [3]: 100 to 300 mg/kg
LD50 at 336 h [4]: > 1000 mg/kg
ED50 ([5]; abs. ethanol): 2.9 mg/kg
Ratio of acid-secretion inhibition and erosion inhibition ([5]; p.o.): ≤ 70

CCCC1CCCCC(=C\c2ccc(Cl)cc2)/C1=N/OCCN(CC)CC (racemic) [Example 40, (R,S)-7-(E)-(4-Chlorophenylmethylene)-2-propyl-1-(E)-[2-(diethylamino)-ethoxyimino]-cycloheptane]
ED50 [1, 9]: 52.9 mg/kg
IC50 [2]: 7 µM
LD50 at 336 h [3]: 100 to 300 mg/kg
LD50 at 336 h [4]: > 1000 mg/kg
ED50 ([5]; abs. ethanol): 2.6 mg/kg
Ratio of acid-secretion inhibition and erosion inhibition ([5]; p.o.): 20

CCN(CC)CCO/N=C1/C(=C/c2ccc(Cl)c(Cl)c2)CCCC1C (racemic) [Example 41, (R,S)-6-(E)-(3,4-Dichlorophenylmethylene)-2-methyl-1-(E)-[2-(diethylamino)-ethoxyimino]-cyclohexane]
IC50 [2]: 17 µM
LD50 at 336 h [3]: 100 to 300 mg/kg
LD50 at 336 h [4]: > 1000 mg/kg

CCCC1CCCCC(=C\c2ccc(Cl)cc2)/C1=N/OCC(O)CN1CCCC1 (racemic) [Example 44, (R,S)-2-Propyl-7-(E)-(4-chlorophenylmethylene)-1-(E)-[2-hydroxy-3-(N-pyrrolidinylpropoxyimino)]-cycloheptane]
ED50 [1, 9]: 50 to 200 mg/kg
IC50 [2]: 10 µM
LD50 at 336 h [3]: 100 to 300 mg/kg
LD50 at 336 h [4]: > 1000 mg/kg
ED50 ([5]; abs. ethanol): 1.6 mg/kg

CN/C(=N/CCSCc1nc[nH]c1C)NC#N [Cimetidine, reference compound]
ED50 ([1]; 4 h): 59.1 mg/kg
ED50 ([5]; abs. ethanol): 100 to 200 mg/kg
Ratio of acid-secretion inhibition and erosion inhibition ([5]; p.o.): 0.3-0.6

CC(=NOCC(O)CNC(C)(C)C)C1CC1 (stereo not drawn) [Falintolol]
beta-adrenergic blocking activity [6]: exhibit beta-adrenergic blocking activity

CC(C)(C)NCC(O)CON=C1c2ccccc2-c2ccccc21 (stereo not drawn) [IPS-339]
beta-adrenergic blocking activity [6]: exhibit beta-adrenergic blocking activity

COc1ccc2[nH]c([S+]([O-])Cc3ncc(C)c(OC)c3C)nc2c1 (stereo not drawn) [Omeprazole, reference compound]
ED50 [1, 9]: 3.9 mg/kg
ED50 ([5]; abs. ethanol): 4.5 mg/kg
Ratio of acid-secretion inhibition and erosion inhibition ([5]; p.o.): 0.9

OC(CON=Cc1ccc(Cl)cc1)CN1CCN(c2ccccc2Cl)CC1 (stereo not drawn) [Peraclopon]
lipid level lowering [7]: lipid level lowering agent

COc1cccc(C=NOCC(O)CN2CCN(c3ccccc3OC)CC2)c1 (stereo not drawn) [Peradoxime]
hypotensive effect [8]: has a hypotensive effect

CN1CCN(CC(=O)N2c3ccccc3C(=O)Nc3cccnc32)CC1 [Pirenzepine, reference compound]
ED50 [1, 9]: 7.9 mg/kg
ED50 ([5]; abs. ethanol): 18.6 mg/kg
Ratio of acid-secretion inhibition and erosion inhibition ([5]; p.o.): 0.4

Sucralfate [reference compound]
Ethanol erosion ED50 ([5]; p.o., abs. ethanol): 69 mg/kg
